This passage reports IC50 results from ChEMBL document CHEMBL1138705, “Tetrahydroisoquinoline derivatives as melatonin MT2 receptor antagonists” (Bioorg Med Chem Lett, 2004).

As a reminder, the IC50 is the concentration at which inhibition is half-maximal. Lower therefore signals inhibition by little substance.

Molecules are shown by their SMILES. A value given as a limit tells only on which side of the number the result lay.

Experiment [1] addresses T1, Melatonin receptor type 1B (Homo sapiens, UniProt P49286).
T1 sequence (P49286 whole entry): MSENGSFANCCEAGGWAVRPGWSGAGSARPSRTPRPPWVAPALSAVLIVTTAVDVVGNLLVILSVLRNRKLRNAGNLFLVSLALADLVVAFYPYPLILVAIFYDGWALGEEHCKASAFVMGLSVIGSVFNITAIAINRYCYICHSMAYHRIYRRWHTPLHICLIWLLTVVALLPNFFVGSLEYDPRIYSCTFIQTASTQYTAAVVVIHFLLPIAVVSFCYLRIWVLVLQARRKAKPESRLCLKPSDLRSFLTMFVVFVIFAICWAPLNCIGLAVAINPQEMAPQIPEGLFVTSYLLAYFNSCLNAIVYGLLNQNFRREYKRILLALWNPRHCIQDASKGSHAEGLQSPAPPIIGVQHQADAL
Description: Inhibitory concentration against Melatonin receptor type 1B.

The target in experiment [2] is Melatonin receptor type 1A (Homo sapiens, UniProt P48039). Description: Inhibitory concentration against Melatonin receptor type 1A.
Melatonin receptor type 1A, sequence (P48039 whole entry): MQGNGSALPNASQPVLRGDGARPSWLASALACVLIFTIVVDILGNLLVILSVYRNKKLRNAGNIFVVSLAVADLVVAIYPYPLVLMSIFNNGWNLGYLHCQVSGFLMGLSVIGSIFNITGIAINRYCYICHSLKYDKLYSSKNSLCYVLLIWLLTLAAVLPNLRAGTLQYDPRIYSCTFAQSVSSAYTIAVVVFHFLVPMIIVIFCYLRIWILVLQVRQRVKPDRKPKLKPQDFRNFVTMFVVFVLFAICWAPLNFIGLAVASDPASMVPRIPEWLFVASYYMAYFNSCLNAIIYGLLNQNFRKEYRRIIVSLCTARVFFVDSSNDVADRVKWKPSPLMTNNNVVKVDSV

In experiment [1], `COc1cc2c(cc1OC)C(CCc1ccccc1)N(C(=O)C1CCC1)CC2` (stereo unspecified) showed an IC50 of 24 nM.
`COc1cc2c(cc1OC)C(CC(c1ccccc1)c1ccccc1)N(C(=O)c1ccc(C(F)(F)F)cc1)CC2` (stereo unspecified): half-maximal inhibition in experiment [1] (IC50) was put at 810 nM.
Regarding `CNC(=O)N1CCc2cc(OC)c(OC)cc2C1CC(c1ccccc1)c1ccccc1` (stereo unspecified), the IC50 was 60 nM in experiment [1] and over 1000 nM in experiment [2].
In the same order, the values of `CCCC(=O)N1CCc2cc(OC)c(OC)cc2C1CC(c1ccccc1)c1ccccc1` (stereo unspecified) are 79 nM and over 1000 nM.
In the case of `COc1cc2c(cc1OC)C(CC(c1ccccc1)c1ccccc1)N(C=O)CC2` (stereo unspecified), the concentration for half-maximal inhibition (IC50) in experiment [1] was determined as 9.9 nM; in experiment [2], 621 nM.
`COc1cc2c(cc1OC)C(CC(c1ccccc1)c1ccccc1)N(C(N)=O)CC2` (stereo unspecified): the figures for the IC50 in experiment [1] and in experiment [2] were 30 nM and over 1000 nM, respectively.
For the compound `COc1cc2c(cc1OC)C(CC(c1ccccc1)c1ccccc1)N(C(=O)C(F)(F)F)CC2` (stereo unspecified), the IC50 in experiment [1] was 100 nM; in experiment [2], over 1000 nM.
Compound `COc1cc2c(cc1OC)C(CC(c1ccccc1)c1ccccc1)N(C(=O)C1CCC1)CC2` (stereo in doubt; 1j) had an IC50 in experiment [1] of 310 nM. In other words, the sub-micromolar range.
With `COc1cc2c(cc1OC)C(CC(c1ccccc1)c1ccccc1)N(C(C)=O)CC2` (stereo unspecified), the IC50 is 9.7 nM in experiment [1] and over 1000 nM in experiment [2].
Turning to `COc1cc2c(cc1OC)C(CC(c1ccccc1)c1ccccc1)N(C(=O)c1ccccc1)CC2` (stereo unspecified), the results for the IC50 in experiment [1] and in experiment [2] were 120 nM and over 1000 nM, respectively.
For `COC(=O)N1CCc2cc(OC)c(OC)cc2C1CC(c1ccccc1)c1ccccc1` (stereo unspecified), in that order: 22 nM and 673 nM.
`CCCCCCC(=O)N1CCc2cc(OC)c(OC)cc2C1CC(c1ccccc1)c1ccccc1` (stereo unspecified) yielded an IC50 in experiment [1] of 400 nM. In other words, the sub-micromolar range.
Regarding `COc1ccc2c(c1OC)CCN(C(C)=O)C2CC(c1ccccc1)c1ccccc1` (stereo unspecified), the IC50 in experiment [1] and in experiment [2] was over 1000 nM throughout.
For `COc1cc2c(cc1Br)CCN(C(C)=O)C2CC(c1ccccc1)c1ccccc1` (stereo unspecified), the IC50 in experiment [1] came out at 24 nM; in experiment [2], 230 nM.
Consider `COc1cc2c(cc1OC)C(CCc1ccccc1)N(C(C)=O)CC2` (stereo unspecified), for which the results for the IC50 in experiment [1] and in experiment [2] were 76 nM and over 1000 nM, respectively.
In the same order, the values of `CC(=O)N1CCc2cc(F)ccc2C1CC(c1ccccc1)c1ccccc1` (stereo unspecified) are 140 nM and over 1000 nM.
Regarding `COc1cc2c(cc1OC)C(CC(c1ccccc1)c1ccccc1)N(C(=O)C1CCC1)CC2` (stereo in doubt; 1m), in experiment [1], the IC50 amounted to 240 nM. That is a sub-micromolar value.
In turn, `COc1cc2c(cc1OC)C(CC(c1ccccc1)c1ccccc1)N(C(=O)C1CCCCC1)CC2` (stereo unspecified) gave an IC50 in experiment [1] of 370 nM. This IC50 is about 1.5-fold higher than that of the compound before.
For `COc1cc2c(cc1OC)C(CCc1ccccc1)N(C(=O)c1ccc(C(F)(F)F)cc1)CC2` (stereo unspecified), the IC50 in experiment [1] was 1000 nM.
Regarding `COc1ccc2c(c1)C(CC(c1ccccc1)c1ccccc1)N(C(C)=O)CC2` (stereo unspecified), the IC50 in experiment [1] is 5.5 nM; in experiment [2], 512 nM.
For `COc1cc2c(cc1OC)C(CCc1ccccc1)N(C(N)=O)CC2` (stereo unspecified), in that order: 160 nM and over 1000 nM.
For `CCC(=O)N1CCc2cc(OC)c(OC)cc2C1CC(c1ccccc1)c1ccccc1` (stereo unspecified), in that order: 62 nM and over 1000 nM.
In turn, `CCCCCC(=O)N1CCc2cc(OC)c(OC)cc2C1CC(c1ccccc1)c1ccccc1` (stereo unspecified) had an IC50 in experiment [1] of 280 nM.
For the compound `COc1cc2c(c(OC)c1)C(CC(c1ccccc1)c1ccccc1)N(C(C)=O)CC2` (stereo unspecified), the IC50 in experiment [1] was 45 nM; in experiment [2], over 1000 nM.
In the same order, the values of `COc1cccc2c1CCN(C(C)=O)C2CC(c1ccccc1)c1ccccc1` (stereo unspecified) are over 1000 nM and over 1000 nM.
As for `COc1ccc2c(c1)CCN(C(C)=O)C2CC(c1ccccc1)c1ccccc1` (stereo unspecified), the IC50 in experiment [1] was 270 nM; in experiment [2], over 1000 nM.
With `COc1cc2c(cc1OC)C(CCc1ccccc1)N(C=O)CC2` (stereo unspecified), the results for the IC50 in experiment [1] and in experiment [2] were 83 nM and over 1000 nM, respectively.
For `CC(=O)N1CCc2c(ccc3c2CCO3)C1CC(c1ccccc1)c1ccccc1` (stereo unspecified), in that order: over 1000 nM and over 1000 nM.
For `CC(=O)N1CCc2ccccc2C1CC(c1ccccc1)c1ccccc1` (stereo unspecified), in that order: over 1000 nM and over 1000 nM.
Regarding `COc1cc2c(cc1OC)C(CCc1ccccc1)N(C(=O)C1CCCCC1)CC2` (stereo unspecified), in experiment [1], the IC50 is 220 nM.
